Legend:
Format in all cases: in vivo
[1] = system: Taraxacum officinale (dandelion); assay: Weed control via post emergence spray, in perennial ryegrass/fine fescue mix (Table B5.5)
Procedure: (§1) The weed control efficacy of the compound of formula I was tested. The compound was applied via post emergence spray to a range of weeds, at various rates and spray treatment treatment regimes. Percentage weed control assessments were taken at various timepoints.

Zoysiagrass v. Meyer = assay: Phytotoxicity via post emergence spray application (Table B2.2)
Procedure: The phytotoxicity of the compound of formula I to turfgrass species was tested. The compound was applied via post emergence spray to a range of warm and cool season turfgrass species at various rates and spray treatment treatment regimes. Percentage phytotoxicity assessments were taken at various timepoints.

[2] = system: Trifolium repens (white clover); assay: Weed control of granule formulations, in St. Augustinegrass V. Delmar (Table B6.1)
Procedure: Two granule formulations were made and tested. Granule A is an inert granule formulation, comprising 99.06 wt % DG Lite 150 granules, 0.14 wt % compound of formula I, 0.50 wt % Sunspray 6N, and 0.30 wt % HiSil 233. The compound of formula I was added to the DG Lite granules while blending in a Continental Rollo-mixer.
Sunspray 6N oil was then sprayed onto the granules, and HiSil added to dry excess liquid and improve granule flowability. The granules were blended in the mixer for 20-30 minutes until homogeneous, and passed through a −12/+60 mesh to remove over and under sized particles.
Granule B is a fertiliser granule formulation, comprising 54.65 wt % urea, 6.63 wt % triple super phosphate, 4.95 wt % potassion chloride, 9.91 wt % huber clay, 7.22 wt % HiSil 233, 0.16 wt % compound of formula I, […] agnique ME 181, 2.07 wt % stepfac 8180, and 11.98 wt % water. […] The remaining HiSil was added and granules dried at 40-60° C., to remove excess liquid. Finally, the granules were passed through a −12/+60 mesh to remove over and under sized particles.
The weed control efficacy of the compound of formula I was tested. […] All treatments were watered-in 1 day after application. Percentage weed control assessments were taken at various timepoints.

[3] = system: Digitaria ischaemum (smooth crabgrass); assay: Weed control via post emergence spray, in bluegrass/fescue mix (Table B5.7)
Procedure: as §1

Dandelion = assay: Selective post-emergence herbicidal action, field trial Hudson (Table B1.2); settings: 28 days after application
Procedure: (§2) The selectivity of the compound of formula I in turf (removal of grassy and broadleaf weeds) has been tested in turfgrass varieties selected from Kentucky bluegrass, tall fescue and perennial ryegrass and in […] selected from clover (an aggressive perennial weed) and dandelion (a weed of perennial horticultural crops and gardens which may also be a problem in some annual crops, particularly where reduced tillage is practiced).
(§3) The trials were conducted in Champaign, Ill., U.S. (Table B1.1) and Hudson, N.Y., U.S. (Table B1.2) under field conditions. Turfgrasses were maintained at approximately a 2.5″ height, like a home lawn. Mixed turf and weed stands were present. The test compounds were applied with a CO2 pressurized backpack sprayer by spraying in the form of an aqueous suspension (prepared from a wettable powder) in a concentration of 210 to 280 g/ha. The plots were then mowed and irrigated as needed. After 22 and 28 days respectively, the test is visually evaluated (100%=total damage to plant; 0%=no damage to plant).

Tall fescue = assay: as above; settings: 28 days after application
Procedure: as §2, §3

COCCOCc1nc(C(F)(F)F)ccc1C(=O)C1=C(O)C2CCC(C2)C1=O (centres unmarked) [Formula I, 4-Hydroxy-3-[2-(2-methoxyethoxymethyl)-6-trifluoromethylpyridine-3-carbonyl]-bicyclo[3.2.1]oct-3-en-2-one]
% control ([1]; 1 appl, 140 g ai/ha, 14 DAT): 32.50%
% control ([1]; 1 appl, 140 g ai/ha, 21 DAT): 87.50%
% control ([1]; 1 appl, 280 g ai/ha, 14 DAT): 37.50%
% control ([1]; 1 appl, 280 g ai/ha, 21 DAT): 90.00%
% control ([1]; 2 appl, 140 g ai/ha, 14 DAT): 47.50%
% control ([1]; 2 appl, 140 g ai/ha, 21 DAT): 87.50%
% control ([1]; 2 appl, 280 g ai/ha, 14 DAT): 41.25%
% control ([1]; 2 appl, 280 g ai/ha, 21 DAT): 90.00%
% phytotoxicity (Zoysiagrass v. Meyer; 1 appl, 140 g ai/ha, 8 DAT): 42.50%
% phytotoxicity (Zoysiagrass v. Meyer; 1 appl, 140 g ai/ha, 14 DAT): 51.25%
% phytotoxicity (Zoysiagrass v. Meyer; 1 appl, 140 g ai/ha, 29 DAT): 41.25%
% phytotoxicity (Zoysiagrass v. Meyer; 1 appl, 140 g ai/ha, 35 DAT): 25.00%
% phytotoxicity (Zoysiagrass v. Meyer; 1 appl, 140 g ai/ha, 43 DAT): 7.50%
% phytotoxicity (Zoysiagrass v. Meyer; 1 appl, 140 g ai/ha, 51 DAT): 5.00%
% phytotoxicity (Zoysiagrass v. Meyer; 1 appl, 140 g ai/ha, 60 DAT): 0.00%
% phytotoxicity (Zoysiagrass v. Meyer; 1 appl, 280 g ai/ha, 8 DAT): 45.00%
% phytotoxicity (Zoysiagrass v. Meyer; 1 appl, 280 g ai/ha, 14 DAT): 57.50%
% phytotoxicity (Zoysiagrass v. Meyer; 1 appl, 280 g ai/ha, 29 DAT): 61.25%
% phytotoxicity (Zoysiagrass v. Meyer; 1 appl, 280 g ai/ha, 35 DAT): 28.75%
% phytotoxicity (Zoysiagrass v. Meyer; 1 appl, 280 g ai/ha, 43 DAT): 8.75%
% phytotoxicity (Zoysiagrass v. Meyer; 1 appl, 280 g ai/ha, 51 DAT): 3.75%
% phytotoxicity (Zoysiagrass v. Meyer; 1 appl, 280 g ai/ha, 60 DAT): 0.00%
% phytotoxicity (Zoysiagrass v. Meyer; 2 appl, 140 g ai/ha, 8 DAT): 33.75%
% phytotoxicity (Zoysiagrass v. Meyer; 2 appl, 140 g ai/ha, 14 DAT): 47.50%
% phytotoxicity (Zoysiagrass v. Meyer; 2 appl, 140 g ai/ha, 29 DAT): 17.50%
% phytotoxicity (Zoysiagrass v. Meyer; 2 appl, 140 g ai/ha, 35 DAT): 43.75%
% phytotoxicity (Zoysiagrass v. Meyer; 2 appl, 140 g ai/ha, 43 DAT): 27.50%
% phytotoxicity (Zoysiagrass v. Meyer; 2 appl, 140 g ai/ha, 51 DAT): 8.75%
% phytotoxicity (Zoysiagrass v. Meyer; 2 appl, 140 g ai/ha, 60 DAT): 0.00%
% phytotoxicity (Zoysiagrass v. Meyer; 2 appl, 280 g ai/ha, 8 DAT): 38.75%
% phytotoxicity (Zoysiagrass v. Meyer; 2 appl, 280 g ai/ha, 14 DAT): 57.50%
% phytotoxicity (Zoysiagrass v. Meyer; 2 appl, 280 g ai/ha, 29 DAT): 52.50%
% phytotoxicity (Zoysiagrass v. Meyer; 2 appl, 280 g ai/ha, 35 DAT): 47.50%
% phytotoxicity (Zoysiagrass v. Meyer; 2 appl, 280 g ai/ha, 43 DAT): 28.75%
% phytotoxicity (Zoysiagrass v. Meyer; 2 appl, 280 g ai/ha, 51 DAT): 12.50%
% phytotoxicity (Zoysiagrass v. Meyer; 2 appl, 280 g ai/ha, 60 DAT): 0.00%
% control ([2]; Granule A (inert), 112 g ai/ha, 7 DAT): 46.70%
% control ([2]; Granule A (inert), 112 g ai/ha, 11 DAT): 63.30%
% control ([2]; Granule A (inert), 112 g ai/ha, 15 DAT): 66.70%
% control ([2]; Granule A (inert), 112 g ai/ha, 20 DAT): 63.30%
% control ([2]; Granule A (inert), 112 g ai/ha, 28 DAT): 50.00%
% control ([2]; Granule A (inert), 280 g ai/ha, 7 DAT): 56.70%
% control ([2]; Granule A (inert), 280 g ai/ha, 11 DAT): 76.70%
% control ([2]; Granule A (inert), 280 g ai/ha, 15 DAT): 78.30%
% control ([2]; Granule A (inert), 280 g ai/ha, 20 DAT): 70.00%
% control ([2]; Granule A (inert), 280 g ai/ha, 28 DAT): 51.70%
% control ([2]; Granule B (fertiliser), 112 g ai/ha, 7 DAT): 53.30%
% control ([2]; Granule B (fertiliser), 112 g ai/ha, 11 DAT): 70.00%
% control ([2]; Granule B (fertiliser), 112 g ai/ha, 15 DAT): 76.70%
% control ([2]; Granule B (fertiliser), 112 g ai/ha, 20 DAT): 75.00%
% control ([2]; Granule B (fertiliser), 112 g ai/ha, 28 DAT): 70.00%
% control ([2]; Granule B (fertiliser), 280 g ai/ha, 7 DAT): 66.70%
% control ([2]; Granule B (fertiliser), 280 g ai/ha, 11 DAT): 80.00%
% control ([2]; Granule B (fertiliser), 280 g ai/ha, 15 DAT): 85.00%
% control ([2]; Granule B (fertiliser), 280 g ai/ha, 20 DAT): 88.30%
% control ([2]; Granule B (fertiliser), 280 g ai/ha, 28 DAT): 81.70%
% control ([2]; Spray, 112 g ai/ha, 7 DAT): 63.30%
% control ([2]; Spray, 112 g ai/ha, 11 DAT): 78.30%
% control ([2]; Spray, 112 g ai/ha, 15 DAT): 81.70%
% control ([2]; Spray, 112 g ai/ha, 20 DAT): 76.70%
% control ([2]; Spray, 112 g ai/ha, 28 DAT): 76.70%
% control ([2]; Spray, 280 g ai/ha, 7 DAT): 71.70%
% control ([2]; Spray, 280 g ai/ha, 11 DAT): 86.70%
% control ([2]; Spray, 280 g ai/ha, 15 DAT): 90.00%
% control ([2]; Spray, 280 g ai/ha, 20 DAT): 91.70%
% control ([2]; Spray, 280 g ai/ha, 28 DAT): 76.70%
% control ([3]; 10 g ai/ha, 7 DAT): 0.00%
% control ([3]; 10 g ai/ha, 14 DAT): 0.00%
% control ([3]; 10 g ai/ha, 22 DAT): 0.00%
% control ([3]; 10 g ai/ha, 29 DAT): 0.00%
% control ([3]; 10 g ai/ha, 46 DAT): 1.25%
% control ([3]; 20 g ai/ha, 7 DAT): 0.00%
% control ([3]; 20 g ai/ha, 14 DAT): 2.50%
% control ([3]; 20 g ai/ha, 22 DAT): 5.00%
% control ([3]; 20 g ai/ha, 29 DAT): 3.75%
% control ([3]; 20 g ai/ha, 46 DAT): 7.50%
% control ([3]; 40 g ai/ha, 7 DAT): 0.00%
% control ([3]; 40 g ai/ha, 14 DAT): 0.00%
% control ([3]; 40 g ai/ha, 22 DAT): 2.50%
% control ([3]; 40 g ai/ha, 29 DAT): 8.75%
% control ([3]; 40 g ai/ha, 46 DAT): 30.00%
% control ([3]; 80 g ai/ha, 7 DAT): 0.00%
% control ([3]; 80 g ai/ha, 14 DAT): 0.00%
% control ([3]; 80 g ai/ha, 22 DAT): 5.00%
% control ([3]; 80 g ai/ha, 29 DAT): 17.50%
% control ([3]; 80 g ai/ha, 46 DAT): 51.25%
% control ([3]; 160 g ai/ha, 7 DAT): 0.00%
% control ([3]; 160 g ai/ha, 14 DAT): 6.25%
% control ([3]; 160 g ai/ha, 22 DAT): 8.75%
% control ([3]; 160 g ai/ha, 29 DAT): 20.00%
% control ([3]; 160 g ai/ha, 46 DAT): 70.00%
% damage (Dandelion; 210 g/ha): 82.5%
% damage (Dandelion; 280 g/ha): 90%
% damage (Tall fescue; 210 g/ha): 0%
% damage (Tall fescue; 280 g/ha): 0%

Source: US20100184596A1, “METHOD FOR THE CONTROL OF WEEDS IN TURF” (SYNGENTA CROP PROTECTION, INC., priority 2007, published 2010)
